Data: US7022701B2, “Indolylalkylamine derivatives as 5-hydroxytryptamine-6 ligands” (Wyeth, priority 2001, dated 2006)
Structures can show the parent of a compound that is named as a salt.

molecular target: T1, human cloned 5-HT6 receptors (Homo sapiens, UniProt P50406); test: 5-HT6 binding affinity, [3H]-LSD displacement on membranes of Hela cells expressing the receptor; conditions: not given
T1 construct: expressed in transfected cells; host or cells: Hela cells
Procedure: The affinity of test compounds for the serotonin 5-HT6 receptor is evaluated in the following manner. Cultured Hela cells expressing human cloned 5-HT6 receptors are harvested and centrifuged at low speed (1,000×g) for 10.0 min to remove the culture media. The harvested cells are suspended in half volume of fresh physiological phosphate buffered saline solution and recentrifuged at the same speed. This operation is repeated. The collected cells are then homogenized in ten volumes of 50 mM Tris.HCl (pH 7.4) and 0.5 mM EDTA. The homogenate is centrifuged at 40,000×g for 30.0 min and the precipitate is collected. The obtained pellet is resuspended in 10 volumes of Tris.HCl buffer and recentrifuged at the same speed. The final pellet is suspended in a small volume of Tris.HCl buffer and the tissue protein content is determined in aliquots of 10–25 μl volumes. […] The volume of the suspended cell membranes is adjusted to give a tissue protein concentration of 1.0 mg/ml of suspension. The prepared membrane suspension (10 times concentrated) is aliquoted in 1.0 ml volumes and stored at −70° C. until used in subsequent binding experiments.
Binding experiments are performed in a 96 well microtiter plate format, in a total volume of 200 μl. […] The test compounds are added in 20.0 μl volume.
The bound complex caught on the filter disk is allowed to air dry and the radioactivity is measured in a Packard TopCount® equipped with six photomultiplier detectors, after the addition of 40.0 μl Microscint®-20 scintillant to each shallow well. The unifilter plate is heat-sealed and counted in a PackardTopCount® with a tritium efficiency of 31.0%.
Binding in the presence of varying concentrations of test compound is expressed as a percentage of specific binding in the absence of test compound. The results are plotted as log % bound versus log concentration of test compound.

T1 sequence (P50406 whole entry): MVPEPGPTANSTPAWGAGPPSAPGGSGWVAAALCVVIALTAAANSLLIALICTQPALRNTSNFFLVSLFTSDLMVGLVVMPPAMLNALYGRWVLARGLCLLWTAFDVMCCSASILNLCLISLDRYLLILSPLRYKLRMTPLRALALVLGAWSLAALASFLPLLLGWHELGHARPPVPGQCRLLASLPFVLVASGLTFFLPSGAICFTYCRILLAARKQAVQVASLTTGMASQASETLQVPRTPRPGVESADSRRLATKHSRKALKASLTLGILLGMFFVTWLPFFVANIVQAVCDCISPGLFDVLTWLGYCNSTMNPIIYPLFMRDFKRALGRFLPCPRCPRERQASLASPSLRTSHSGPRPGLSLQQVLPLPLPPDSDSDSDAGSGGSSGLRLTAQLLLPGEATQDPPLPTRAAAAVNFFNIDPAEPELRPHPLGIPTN

Molecule	Ki [µM]
CC(N)Cc1cn(S(=O)(=O)c2c(Cl)nc3sccn23)c2ccccc12 (stereo not shown) [Example 12, 2[1-(6–Chloroimidazo[2,1-b]thiazole-5-sulfonyl)-1H-indol-3-yl]-1-methylethylamine Hydrochloride]	0.002
CNCCc1cn(S(=O)(=O)c2c(Cl)nc3sc(Cl)cn23)c2ccccc12 [Example 21, {2-[1-(2,6-dichloro-imidazo[2,1-b][1,3]thiazole-5-sulfonyl)-1H-indol-3-yl]ethyl)methylamine]	0.012
O=C(O)C1CCCN1CCc1cn(S(=O)(=O)c2c(Cl)nc3sccn23)c2ccccc12 (stereo not shown) [Example 11, 1-{2-[1-(6-chloro-imidazo[2,1-b][1,3]thiazole-5-sulfonyl)-1H-indol-3-yl]ethyl}pyrrolidine-2-carboxylic acid]	0.03
O=S(=O)(c1c(Cl)nc2sccn12)n1cc(CCNCCc2ccccc2)c2ccccc21 [Example 10, {2-[1-(6-chloro-imidazo[2,1-b][1,3]thiazole-5-sulfonyl)-1H-indol-3-yl]ethyl}phenethylamine]	0.041
Cc1ccc2c(CCN)cn(S(=O)(=O)c3c(Cl)nc4sccn34)c2c1 [Example 35, 2-[1-(6-chloro-imidazo[2,1-b][1,3]thiazole-5-sulfonyl)-6-methyl-1H-indol-3-yl]ethylamine]	0.006
COc1ccc2c(CCN)cn(S(=O)(=O)c3c(Cl)nc4sccn34)c2c1 [Example 31, 2-[1-(6-chloro-imidazo[2,1-b][1,3]thiazole-5-sulfonyl)-6-methoxy-1H-indol-3-yl]ethylamine]	0.013
NCCc1cn(S(=O)(=O)c2c(Cl)nc3ccccn23)c2ccccc12 [Example 17, 2-[1-(2-chloro-imidazo[1,2-a]pyridine-3-sulfonyl)-1H-indol-3-yl]ethylamine]	0.014
NCCc1cn(S(=O)(=O)c2c(Cl)nc3sccn23)c2cc(F)ccc12 [Example 39, 2-[1-(6-chloro-imidazo[2,1-b][1,3]thiazole-5-sulfonyl)-6-fluoro-1H-indol-3-yl]ethylamine]	0.005
C[C@@H](N)Cc1cn(S(=O)(=O)c2c(Cl)nc3sccn23)c2ccccc12 [Example 16, ®-2-[1-(6 Chloroimidazo[2,1-b]thiazole-5-sulfonyl)-1H-indol-3-yl]-1-methylethylamine Hydrochloride]	0.002
NCCc1cn(S(=O)(=O)c2cnc3sccn23)c2ccccc12 [Example 40, 2-{1-[(imidazo[2,1-b][1,3]thiazol-5-yl)sulfonyl]-1H-indol-3-yl}ethylamine]	0.0012
CNCCc1cn(S(=O)(=O)c2c(Cl)nc3sccn23)c2ccccc12 [Example 3, (2-[1-(6–Chloroimidazo[2,1-b]thiazole-5-sulfonyl)-1H-indol-3-yl]ethyl}methyl amine]	0.019
NCCc1cn(S(=O)(=O)c2c(Cl)nc3sccn23)c2ccc(OCc3ccccc3)cc12 [Example 33, 2-[5-benzyloxy-1-(6-chloro-imidazo[2,1-b][1,3]thiazole-5-sulfonyl)-1H-indol-3-yl]ethylamine]	0.169
Cc1ccc2c(c1)c(CCN)cn2S(=O)(=O)c1c(Cl)nc2sccn12 [Example 34, 2-[1-(6-chloro-imidazo[2,1-b][1,3]thiazole-5-sulfonyl)-5-methyl-1H-indol-3-yl]ethylamine]	0.031
CN(C)CCc1cn(S(=O)(=O)c2c(Cl)nc3sc(Cl)cn23)c2ccccc12 [Example 24, {2-[1-(2,6-dichloro-imidazo[2,1-b][1,3]thiazole-5-sulfonyl)-1H-indol-3-yl]ethyl}dimethylamine]	0.01
COc1ccc2c(c1)c(CCN)cn2S(=O)(=O)c1c(Cl)nc2sccn12 [Example 30, 2-[1-(6-chloro-imidazo[2,1-b][1,3]thiazole-5-sulfonyl)-5-methoxy-1H-indol-3-yl]ethylamine]	0.011
NCCc1cn(S(=O)(=O)c2c(Cl)nc3sc(Cl)cn23)c2ccccc12 [Example 18, 2-[1-(2,6-dichloro-imidazo[2,1-b][1,3]thiazole-5-sulfonyl)-1H-indol-3-yl]ethylamine]	0.008
Cc1cccc2c(CCN)cn(S(=O)(=O)c3c(Cl)nc4sccn34)c12 [Example 36, 2-[1-(6-chloro-imidazo[2,1-b][1,3]thiazole-5-sulfonyl)-7-methyl-1H-indol-3-yl]ethylamine]	0.348
NCCc1cn(S(=O)(=O)c2c(Cl)nc3sccn23)c2ccc(O)cc12 [Example 37, 3-(2-amino-ethyl)-1-(6-chloro-imidazo[2,1-b][1,3]thiazole-5-sulfonyl)-1H-indol-5-ol]	0.004
CN(C)CCc1cn(S(=O)(=O)c2c(Cl)nc3sccn23)c2ccccc12 [Example 4, {2-[1-(6-chloro-imidazo[2,1-b][1,3]thiazole-5-sulfonyl)-1H-indol-3-yl]ethyl}dimethylamine]	0.001
C[C@H](N)Cc1cn(S(=O)(=O)c2c(Cl)nc3sccn23)c2ccccc12 [Example 15, (S)-2-[1-(6–Chloroimidazo[2,1-b]thiazole-5-sulfonyl)-1H-indol-3-yl]-1-methylethylamine Hydrochloride]	0.006
CNCCc1cn(S(=O)(=O)c2c(Cl)nc3ccccn23)c2ccccc12 [Example 20, {2-[1-(2-chloro-imidazo[1,2-a]pyridine-3-sulfonyl)-1H-indol-3-yl]ethyl}methylamine]	0.011
O=S(=O)(c1c(Cl)nc2sccn12)n1cc(CCN2CCCC2)c2ccccc21 [Example 6, 1-(6-chloro-imidazo[2,1-b][1,3]thiazole-5-sulfonyl)-3-(2-pyrrolidin-1-ylethyl)-1H-indole]	0.005
CN(CCc1cn(S(=O)(=O)c2c(Cl)nc3sccn23)c2ccccc12)Cc1ccccc1 [Example 9, benzyl-{2-[1-(6-chloro-imidazo[2,1-b][1,3]thiazole-5-sulfonyl)-1H-indol-3-yl]ethyl}methylamine]	0.005
O=S(=O)(c1c(Cl)nc2sccn12)n1cc(CCNCc2ccccc2)c2ccccc21 [Example 5, benzyl-{2-[1-(6-chloro-imidazo[2,1-b][1,3]thiazole-5-sulfonyl)-1H-indol-3-yl]ethyl}amine]	0.004
NCCc1cn(S(=O)(=O)c2c(Cl)nc3sccn23)c2ccc(Br)cc12 [Example 32, 2-[5-bromo-1-(6-chloro-imidazo[2,1-b][1,3]thiazole-5-sulfonyl)-1H-indol-3-yl]ethylamine]	0.074
CN1CCN(CCc2cn(S(=O)(=O)c3c(Cl)nc4sccn34)c3ccccc23)CC1 [Example 7, 1-(6-chloro-imidazo[2,1-b][1,3]thiazole-5-sulfonyl)-3-[2-(4-methylpiperazin-1-yl)ethyl]-1H-indole]	0.007
NCCc1cn(S(=O)(=O)c2c(Cl)nc3sccn23)c2ccc(F)cc12 [Example 38, 2-[1-(6-chloro-imidazo[2,1-b][1,3]thiazole-5-sulfonyl)-5-fluoro-1H-indol-3-yl]ethylamine]	0.009

same assay, conditions: [3H]-LSD 3.0 nM, membranes of Hela cells expressing human cloned 5-HT6 receptors, 120 min at room temperature; read-out: 5-HT6 Binding Ki

Molecule	Ki [µM]
{2-[1-(2-chloro-benzo[d]imidazo[2,1-b][1,3]thiazole-3-sulfonyl)-1H-indol-3-yl]ethyl}methylamine [Example 22]	0.051
CN(C)CCc1cn(S(=O)(=O)c2c(Cl)nc3ccccn23)c2ccccc12 [Example 23, {2-[1-(2-chloro-imidazo[1,2-a]pyridine-3-sulfonyl)-1H-indol-3-yl]ethyl}dimethyamine]	0.01
NCCCc1cn(S(=O)(=O)c2c(Cl)nc3sccn23)c2ccc(F)cc12 [Example 45, 3-{1-[(6–Chloroimidazo[2,1-b][1,3]thiazol-5-yl)sulfonyl]-5-fluoro-1H-indol-3-yl}propan-1-amine]	0.048
{2-[1-(2-chloro-benzo[d]imidazo[2,1-b][1,3]thiazole-3-sulfonyl)-1H-indol-3-yl]ethyl}dimethylamine [Example 25]	0.037
